Reference: PubChem BioAssay AID248 (DTP/NCI, 2004)
Inconclusive results and toxic doses are left out. Cut-off read from the data, not from the text of the source: active = T/C of 150% or more; inactive = T/C below 125%.

System: L1210 leukemia ip in BDF1 mice, survival T/C
Experiment: NCI In Vivo Anticancer Drug Screen. Data for tumor model L1210 Leukemia (intraperitoneal) in B6D2F1 (BDF1) mice
Details: endpoint: mean survival time, higher = longer survival
Method in brief: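 Tumor was transplanted into mice, which were then dosed with test compound or vehicle alone. Survival was recorded for each group, and the treated figure was expressed relative to the control figure.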

[1] = dose: 100.0 mg/kg/injection, schedule: Q01DX009 (ip), vehicle: Klucel (hydroxypropylcellulose) (HPC)
[2] = dose: 200.0 mg/kg/injection, schedule: Q01DX009 (ip), vehicle: Klucel (hydroxypropylcellulose) (HPC)
[3] = dose: 400.0 mg/kg/injection, schedule: Q01DX009 (ip), vehicle: Klucel (hydroxypropylcellulose) (HPC)
[4] = dose: 100.0 mg/kg/injection, schedule: Q04DX003 (ip), vehicle: Klucel (hydroxypropylcellulose) (HPC)
[5] = dose: 200.0 mg/kg/injection, schedule: Q04DX003 (ip), vehicle: Klucel (hydroxypropylcellulose) (HPC)
[6] = dose: 400.0 mg/kg/injection, schedule: Q04DX003 (ip), vehicle: Klucel (hydroxypropylcellulose) (HPC)
[7] = dose: 50.0 mg/kg/injection, schedule: Q01DX009 (ip), vehicle: saline
[8] = dose: 100.0 mg/kg/injection, schedule: Q01DX009 (ip), vehicle: saline
[9] = dose: 100.0 mg/kg/injection, schedule: Q04DX003 (ip), vehicle: saline with Tween-80
[10] = dose: 200.0 mg/kg/injection, schedule: Q01DX009 (ip), vehicle: saline
[11] = dose: 400.0 mg/kg/injection, schedule: Q01DX009 (ip), vehicle: saline
[12] = dose: 100.0 mg/kg/injection, schedule: Q01DX001 (ip), vehicle: carboxymethylcellulose (CMC)
[13] = dose: 200.0 mg/kg/injection, schedule: Q01DX001 (ip), vehicle: carboxymethylcellulose (CMC)
[14] = dose: 400.0 mg/kg/injection, schedule: Q01DX001 (ip), vehicle: carboxymethylcellulose (CMC)
[15] = dose: 50.0 mg/kg/injection, schedule: Q01DX001 (ip), vehicle: saline
[16] = dose: 100.0 mg/kg/injection, schedule: Q01DX001 (ip), vehicle: saline
[17] = dose: 200.0 mg/kg/injection, schedule: Q01DX001 (ip), vehicle: saline
[18] = dose: 50.0 mg/kg/injection, schedule: Q01DX001 (ip), vehicle: carboxymethylcellulose (CMC)
[19] = dose: 400.0 mg/kg/injection, schedule: Q01DX001 (ip), vehicle: saline

Measured: T/C

CC1(C)N=C(N)N=C(N)N1c1cccc(Cl)c1
inactive: dose: 1.15 mg/kg/injection, schedule: Q01DX Z (ip), vehicle: carboxymethylcellulose (CMC) 98 % of control | dose: 2.3 mg/kg/injection, schedule: Q01DX Z (ip), vehicle: carboxymethylcellulose (CMC) 97 % of control | dose: 2.5 mg/kg/injection, schedule: Q01DX015 (ip), vehicle: saline 111 % of control | dose: 4.6 mg/kg/injection, schedule: Q01DX Z (ip), vehicle: carboxymethylcellulose (CMC) 117 % of control | dose: 5.0 mg/kg/injection, schedule: Q01DX015 (ip), vehicle: saline 114 % of control | dose: 9.2 mg/kg/injection, schedule: Q01DX Z (ip), vehicle: carboxymethylcellulose (CMC) 108 % of control | dose: 10.0 mg/kg/injection, schedule: Q01DX015 (ip), vehicle: saline 119 % of control | dose: 40.0 mg/kg/injection, schedule: Q01DX015 (ip), vehicle: saline 114 % of control | dose: 75.0 mg/kg/injection, schedule: Q01DX001 (ip), vehicle: acetone 111 % of control

O=C(CNC(=O)Nc1ccc(Cl)c(Cl)c1)NNC(=O)Nc1ccc(Cl)c([N+](=O)[O-])c1
inactive: [1] 97 % of control | [2] 97 % of control | [3] 93 % of control

O=C(Cc1cccc([N+](=O)[O-])c1)Nc1ccccc1
inactive: [1] 91 % of control | [4] 96 % of control | [2] 98 % of control | [5] 96 % of control | [3] 93 % of control | [6] 102 % of control

O=C1CCC(=O)N1CCC(=O)N(C(=O)NC1CCCCC1)C1CCCCC1
inactive: [7] 98 % of control | [8] 95 % of control | [9] 100 % of control | [10] 101 % of control | dose: 200.0 mg/kg/injection, schedule: Q04DX003 (ip), vehicle: saline with Tween-80 106 % of control | [11] 98 % of control | dose: 400.0 mg/kg/injection, schedule: Q04DX003 (ip), vehicle: saline with Tween-80 100 % of control

COc1cc(O)c(OC)cc1O
inactive: [1] 100 % of control | [4] 105 % of control | [2] 103 % of control | [5] 103 % of control | [3] 97 % of control | [6] 102 % of control

COc1cc2c(c(O)c1OCC=C(C)C)c(=O)c1ccccc1n2C
inactive: [12] 93 % of control | [13] 95 % of control | [14] 88 % of control

O=C1C=CC(=O)c2[nH]c(=O)ccc21
inactive: dose: 5.0 mg/kg/injection, schedule: Q01DX001 (ip), vehicle: saline 104 % of control | dose: 10.0 mg/kg/injection, schedule: Q01DX001 (ip), vehicle: saline 107 % of control

CCCCCCCCN(CC)CC
inactive: [15] 88 % of control | [16] 90 % of control | [17] 90 % of control

O=C(SCc1ccccc1)c1cccnc1
inactive: [9] 99 % of control

CCOP(=O)(OCC)N(C(=O)O)C1CCCCC1
inactive: [7] 96 % of control | [8] 109 % of control | [10] 108 % of control | [11] 105 % of control

CCCCCCCCCCOC(=S)S
inactive: dose: 50.0 mg/kg/injection, schedule: Q04DX002 (sc), vehicle: olive oil, sesame oil, peanut oil 100 % of control | dose: 100.0 mg/kg/injection, schedule: Q04DX002 (sc), vehicle: olive oil, sesame oil, peanut oil 116 % of control | dose: 200.0 mg/kg/injection, schedule: Q04DX002 (sc), vehicle: olive oil, sesame oil, peanut oil 106 % of control

Cc1cc(S(=O)(=O)c2cc(C)c(O)c(C(N)=O)c2)cc(C(N)=O)c1O
inactive: dose: 100.0 mg/kg/injection, schedule: Q04DX002 (ip), vehicle: carboxymethylcellulose (CMC) 95 % of control | dose: 200.0 mg/kg/injection, schedule: Q04DX002 (ip), vehicle: carboxymethylcellulose (CMC) 103 % of control | dose: 400.0 mg/kg/injection, schedule: Q04DX002 (ip), vehicle: carboxymethylcellulose (CMC) 98 % of control

Cc1ccc(NC(=O)NCCCCl)cc1
inactive: [18] 98 % of control | [12] 110 % of control | [13] 98 % of control | [14] 106 % of control

CC(=O)OCC(OC(C)=O)C(OC(C)=O)C(OC(C)=O)C(COC(=O)c1ccccc1)OC(=O)c1ccccc1 (stereo not given)
inactive: dose: 100.0 mg/kg/injection, schedule: Q01DX001 (ip), vehicle: saline with Tween-80 108 % of control | dose: 200.0 mg/kg/injection, schedule: Q01DX001 (ip), vehicle: saline with Tween-80 89 % of control | dose: 400.0 mg/kg/injection, schedule: Q01DX001 (ip), vehicle: saline with Tween-80 104 % of control

Cc1ncc(CO)c(Nc2ccccc2Cl)n1
inactive: dose: 12.5 mg/kg/injection, schedule: Q04DX003 (ip), vehicle: Klucel (hydroxypropylcellulose) (HPC) 88 % of control | dose: 25.0 mg/kg/injection, schedule: Q04DX003 (ip), vehicle: Klucel (hydroxypropylcellulose) (HPC) 102 % of control | dose: 50.0 mg/kg/injection, schedule: Q04DX003 (ip), vehicle: Klucel (hydroxypropylcellulose) (HPC) 98 % of control

COc1cc(CC2COCC2Cc2ccc3c(c2)OCO3)cc(OC)c1OC (stereo not given)
inactive: dose: 25.0 mg/kg/injection, schedule: Q01DX009 (ip), vehicle: acetone 110 % of control | dose: 50.0 mg/kg/injection, schedule: Q01DX009 (ip), vehicle: acetone 101 % of control | dose: 100.0 mg/kg/injection, schedule: Q01DX009 (ip), vehicle: acetone 103 % of control

CCC1C2Cc3ccc(O)cc3C1(CC)CCN2C (stereo not given)
inactive: [15] 101 % of control | [16] 101 % of control

COc1ccc(C)cc1NC(C)=O
inactive: [16] 98 % of control | [17] 100 % of control | [19] 98 % of control

N#CC1CS(=O)(=O)C1
inactive: [8] 108 % of control | dose: 100.0 mg/kg/injection, schedule: Q04DX003 (ip), vehicle: saline 106 % of control | [10] 103 % of control | dose: 200.0 mg/kg/injection, schedule: Q04DX003 (ip), vehicle: saline 101 % of control | dose: 400.0 mg/kg/injection, schedule: Q04DX003 (ip), vehicle: saline 102 % of control

CC1(OC(=O)c2ccc([N+](=O)[O-])cc2)CC2CC1c1ccccc12 (stereo not given)
inactive: [18] 90 % of control | [13] 111 % of control | [14] 90 % of control

O=C(Nc1cccc(Br)c1)c1ccc([N+](=O)[O-])s1
inactive: dose: 50.0 mg/kg/injection, schedule: Q01DX005 (ip), vehicle: water 89 % of control | dose: 100.0 mg/kg/injection, schedule: Q01DX005 (ip), vehicle: water 89 % of control | dose: 200.0 mg/kg/injection, schedule: Q01DX005 (ip), vehicle: water 89 % of control | dose: 400.0 mg/kg/injection, schedule: Q01DX005 (ip), vehicle: water 87 % of control

CC(C)C(O)CC(=O)NN (stereo not given)
inactive: [16] 98 % of control | [17] 110 % of control | [19] 102 % of control

C1CC2CC1C1OC21 (stereo not given)
inactive: [15] 103 % of control | [16] 100 % of control | dose: 100.0 mg/kg/injection, schedule: Q01DX009 (ip), vehicle: other 100 % of control | [17] 105 % of control | dose: 200.0 mg/kg/injection, schedule: Q01DX009 (ip), vehicle: other 101 % of control | [19] 103 % of control | dose: 400.0 mg/kg/injection, schedule: Q01DX009 (ip), vehicle: other 94 % of control
